Reference: patent publication US20230321126A1 (priority 2020, published 2023)

Experiments:
hACE2 [1] = target: T1, hACE2 (Homo sapiens, UniProt Q9BYF1); assay: ACE2 binding assay (ACE2 Inhibitor Screening Assay Kit); set-up: purchased BPS Bioscience
[2] = tested on: A549 cells expressing SARS-CoV-2 spike protein / hACE2/A549 cells; assay type: cell-based, human; settings: 25 μg/ml, 4 h
[3] = tested on: SARS-CoV-2 spike protein pseudo-typed virions; assay type: cell-based
cathepsin L = assay: Cathepsin L expression in A549 cells (Western blot); assay type: cell-based, human; settings: 24 h
Description: Western blot analysis: A549 cells were treated with indicated concentrations of selected polyphenols and lysed using RIPA lysis buffer (Sigma, St. Louis, MO) supplemented with 1× Complete protease inhibitors (Roche Applied Science, Indianapolis, IN). The protein concentration was measured by the Dc protein assay (Bio-Rad, Hercules, CA). Proteins (50 μg/well) were separated on 8-16% gradient SDS-PAGE gels and transferred to a PVDF membrane. Specific proteins were detected with commercially available human anti-cathepsin L, anti-TMPRSS2, and anti-ACE2 monoclonal antibodies, all at 1:200 dilution, and anti-β-actin antibody as a loading control at 1:1000 dilution. Images were captured with Azure™ cSeries digital imaging system (Azure Biosystems, Dublin, CA) with auto-exposure settings. Densitometry was performed with NIH ImageJ software.
Cathepsin L expression: Expression of cathepsin L in cells was performed using Western blot. […] Next, cells were washed with 1×PBS, lysed, and processed according to procedure described below.
Western blot: A495 cells were lysed with lysis buffer [R IPA buffer plus 1× Protease Inhibitor (ThermoFisher Scientific, Waltham, MA)]. The protein estimation was performed with Dc Protein Assay (Bio-Rad, Hercules, CA). A 45 μg/well of protein was separated on 8-16% gradient SDS-PAGE gels and transferred to a PVDF membrane. […]

[4] = target: RBD of SARS-CoV-2 spike protein / hACE2 receptor (Severe acute respiratory syndrome coronavirus 2, UniProt P0DTC2); assay type: binding; settings: 100 μg/ml
[5] = tested on: SARS-CoV-2 spike protein pseudo-typed virions; assay type: cell-based; remark: listed apart in the source
hACE2 [6] = target: T1, hACE2; settings: Jena et al.; cited from earlier work
[7] = target: RBD of SARS-CoV-2 spike protein (Severe acute respiratory syndrome coronavirus 2, UniProt P0DTC2); settings: Jena et al.; cited from earlier work
[8] = tested on: lysosomal/endosomal pH of A549 cells; assay: Endosomal/lysosomal pH assay in A549 cells; assay type: cell-based, human; settings: 5.0-25 μg/ml; control approximately pH=5.0
Description: Acridine orange (Thermo Fisher Scientific, Waltham, MA) was added directly to each dish to reach a final concentration of 6.6 μg/ml. The cells were additionally incubated at 37° C. with 5% CO2 for 20 min. and washed three times with 1×PBS. Live Cell Imaging Solution (LCIS) (Thermo Fisher Scientific, Waltham, MA) was added to the wells, and images were taken using a Zeiss Axio Observer A1 fluorescence microscope with a 40× magnification. […] Results are expressed as a percentage of polyphenol-free control (mean+/−SD, n=3).
A concurrent experiment was performed using pHrodo™ Green AM Intracellular pH Indicator (Thermo Fisher Scientific, Waltham, MA) according to the manufacturer's protocol. […] Next, 10 μl of the pHrodo™ Green AM dye was added to 100 μl of PowerLoad™ to facilitates uniform cellular loading of AM esters, and the whole dye solution was transferred into 10 ml of LCIS. […] The plate was incubated for 30 min. at 37° C., washed again with LCIS, and fluorescence was measured at Ex/Em=509/533 nm wavelength using a spectrofluorometer (Tecan Group Ltd, Switzerland). pH identification was performed based on standard curve, using an Intracellular pH Calibration Buffer Kit according to the manufacturer's protocol (Thermo Fisher Scientific, Waltham, MA). […] Next, the fluorescence was measured Ex/Em=509/533 nm wavelength. […]

T1 sequence (Q9BYF1 18-805): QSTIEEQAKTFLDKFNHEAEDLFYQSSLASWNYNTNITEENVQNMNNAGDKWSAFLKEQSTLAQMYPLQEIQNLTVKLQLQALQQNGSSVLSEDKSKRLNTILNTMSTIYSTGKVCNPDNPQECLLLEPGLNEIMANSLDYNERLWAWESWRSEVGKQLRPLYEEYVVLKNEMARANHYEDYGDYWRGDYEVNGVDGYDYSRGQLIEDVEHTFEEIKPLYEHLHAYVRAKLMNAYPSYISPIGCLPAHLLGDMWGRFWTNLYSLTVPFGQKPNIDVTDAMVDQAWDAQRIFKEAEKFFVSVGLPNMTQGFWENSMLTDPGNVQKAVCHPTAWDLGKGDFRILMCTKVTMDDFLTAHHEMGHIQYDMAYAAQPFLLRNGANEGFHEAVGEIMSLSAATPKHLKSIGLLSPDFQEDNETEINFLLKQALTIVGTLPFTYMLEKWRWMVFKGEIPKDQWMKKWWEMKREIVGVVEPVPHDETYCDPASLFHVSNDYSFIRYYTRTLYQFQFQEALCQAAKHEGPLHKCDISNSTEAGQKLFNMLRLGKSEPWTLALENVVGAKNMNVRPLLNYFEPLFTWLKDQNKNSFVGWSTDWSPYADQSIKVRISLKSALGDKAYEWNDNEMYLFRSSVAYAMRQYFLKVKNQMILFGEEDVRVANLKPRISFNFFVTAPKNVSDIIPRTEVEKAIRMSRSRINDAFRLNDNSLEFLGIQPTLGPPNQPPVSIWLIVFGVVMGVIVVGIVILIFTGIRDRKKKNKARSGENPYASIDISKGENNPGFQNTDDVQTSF

| Compound | direct binding to ACE2 (hACE2 [1]) | decrease of fusion [2] | binding of pseudo-typed virions to hACE2/A549 [3] | cathepsin L expression at protein level (cathepsin L) | rank of inhibitory effect among 56 polyphenols and plant extracts [4] | concentration showing binding efficacy to ACE2 (hACE2 [1]) | concentration from which significant inhibition was seen [5] | binding affinity to hACE2 (hACE2 [6]) | binding affinity to viral spike protein [7] | lysosomal/endosomal pH [8] |
| --- | --- | --- | --- | --- | --- | --- | --- | --- | --- | --- |
| Oc1ccc2c(c1)OC[C@]1(O)Cc3cc(O)c(O)cc3[C@H]21 [Brazilin] | does not bind to ACE2 directly | 40% | inhibit, in dose-dependent fashion | neither brazilin nor curcumin downregulated cathepsin L expression | highest inhibitory effect | – | – | – | – | – |
| COc1cc(/C=C/C(=O)CC(=O)/C=C/c2ccc(O)c(OC)c2)ccc1O [Curcumin] | – | – | inhibit, in dose-dependent fashion | neither brazilin nor curcumin downregulated cathepsin L expression | highest inhibitory effect | 10 to 25 µg/mL | ≥ 5.0 µg/mL | -8.9 kcal/mol | -10.5 kcal/mol | – |
| catechin | – | – | – | – | – | – | – | -7.8 kcal/mol | -7.9 kcal/mol | – |
| theaflavin-3,3′-digallate [TF-3] | – | – | inhibit, in dose-dependent fashion | – | – | – | – | – | – | 5.5-6.0 pH |
